Experimental data as given in patent US20070129344A1, “Bicyclic 6-alkylidene-penem beta-lactamase inhibitors and beta-lactam antibiotic combination: a broad spectrum antibiotic” (priority 2005, published 2007).
Like-named read-outs stand apart in the source and are kept apart here.

How the values were obtained:
[1] = system: K. pneumoniae GC 7823 Fox 5; test: MIC microbroth dilution; β-lactamase class C; assay type: cell-based; settings: Klebsiella pneumoniae, GC7823FOX5, K. pneumoniae GC 7823, Cefepime alone, read-out: MIC
Procedure: (§1) The in vitro activities of the antibiotics were determined by the microbroth dilution method as recommended by the National Committee for Clinical Laboratory Standards (NCCLS). (NCCLS. 2000. Methods for Dilution Antimicrobial Susceptibility Tests for Bacteria That Grow Aerobically; Approved Standards: M7-A5, vol. 19. National Committee for Clinical Laboratory Standards, Villanova, Pa.). Mueller-Hinton II broth (MHBII)(BBL Cockeysville, Md.), was used for the testing procedure. […]. The plates were incubated for 18-22 hours at 35° C. in ambient air.

[2] = system: E. cloacae PT 967 Inducible AmpC; test: MIC microbroth dilution; β-lactamase class C; assay type: cell-based; settings: Cefepime alone
Procedure: as §1

[3] = system: A. baumannii GC 7684 AmpC, AmpC; test: MIC microbroth dilution; β-lactamase class C; assay type: cell-based; settings: Cefepime alone
Procedure: as §1

[4] = system: S. marcescens PT 696 Inducible AmpC; test: MIC microbroth dilution; β-lactamase class C; assay type: cell-based; settings: Serratia marcescens, Cefepime alone, read-out: MIC
Procedure: as §1

[5] = system: P. aeruginosa ATCC 27853 AmpC-inducable; test: MIC microbroth dilution; β-lactamase class C; assay type: cell-based
Procedure: as §1

[6] = system: K. pneumoniae GC 7821 DHA 1; test: MIC microbroth dilution; β-lactamase class C; assay type: cell-based; settings: Klebsiella pneumoniae, GC7821DHA1, K. pneumoniae GC 7821, Cefepime alone, read-out: MIC
Procedure: as §1

[7] = system: E. cloacae GC 6991 (AmpC); test: MIC microbroth dilution; β-lactamase class C; assay type: cell-based; settings: Enterobacter cloacae, Cefepime alone, read-out: MIC
Procedure: as §1

[8] = system: P. aeruginosa GC 1764 (AmpC); test: MIC microbroth dilution; β-lactamase class C; assay type: cell-based; settings: Cefepime alone
Procedure: as §1

[9] = system: E. cloacae GC 4142 (AmpC); test: MIC microbroth dilution; β-lactamase class C; assay type: cell-based; settings: Enterobacter cloacae, Cefepime alone, read-out: MIC
Procedure: as §1

[10] = system: K. pneumoniae GC 7635 SHV-1, KPC2; test: MIC microbroth dilution; β-lactamase class A, A (Cb'ase); assay type: cell-based; settings: Cefepime alone
Procedure: as §1

[11] = system: E. coli GAR 6649 TEM, OXA, CTX (By PCR only); test: MIC microbroth dilution; β-lactamase class A, A (ESBL), D; assay type: cell-based; settings: Cefepime alone
Procedure: as §1

[12] = system: E. coli GC 2844 (none); test: MIC microbroth dilution; β-lactamase class none; assay type: cell-based; settings: Cefepime alone
Procedure: as §1

[13] = system: E. coli GC 2804 (imp); test: MIC microbroth dilution; β-lactamase class none; assay type: cell-based; settings: Escherichia coli, Cefepime alone
Procedure: as §1

[14] = system: E. coli ATCC 25922 (none); test: MIC microbroth dilution; β-lactamase class none; assay type: cell-based; settings: Escherichia coli, ATCC25922, E. coli ATCC 25922, Cefepime alone, read-out: MIC
Procedure: as §1

[15] = system: S. maltophilia GC 1712 (L1); test: MIC microbroth dilution; β-lactamase class B; assay type: cell-based; settings: Cefepime alone
Procedure: as §1

[16] = system: K. pneumoniae GC 7632 TEM-1 KPC-2, SHV-7, SHV-12; test: MIC microbroth dilution; β-lactamase class A, A (Cb'ase), A (ESBL); assay type: cell-based; settings: Cefepime alone
Procedure: as §1

[17] = system: P. aeruginosa PT 8411 PTZ-R; test: MIC microbroth dilution; assay type: cell-based; settings: Cefepime alone
Procedure: as §1

[18] = system: P. aeruginosa PT 9236 PTZ-R; test: MIC microbroth dilution; assay type: cell-based; settings: Cefepime alone
Procedure: as §1

[19] = system: P. aeruginosa PT 9587 PTZ-R; test: MIC microbroth dilution; assay type: cell-based; settings: Cefepime alone
Procedure: as §1

[20] = system: P. aeruginosa PT 8503 PTZ-R; test: MIC microbroth dilution; assay type: cell-based; settings: Cefepime alone
Procedure: as §1

[21] = system: E. coli GC 2847 (TEM-1); test: MIC microbroth dilution; β-lactamase class A; assay type: cell-based; settings: Escherichia coli, Cefepime alone, read-out: MIC
Procedure: as §1

[22] = system: A. baumannii GC 6662 IMI-R; test: MIC microbroth dilution; class PBP (penicillin binding protein); assay type: cell-based; settings: Cefepime alone
Procedure: as §1

[23] = system: A. baumannii GC 6660 IMI-R; test: as above; assay type: cell-based; settings: Cefepime alone
Procedure: as §1

[24] = system: A. baumannii GC 6661 IMI-R; test: as above; assay type: cell-based; settings: Cefepime alone
Procedure: as §1

[25] = system: K. pn GC 6494 (TEM-1 + SHV-5); test: MIC microbroth dilution; β-lactamase class A, A (ESBL); assay type: cell-based, K. pneumoniae; settings: Klebsiella pneumoniae, Cefepime alone, read-out: MIC
Procedure: as §1

[26] = system: K. pn GC 6657 (TEM-1 + SHV-27); test: as above; assay type: cell-based, K. pneumoniae; settings: Cefepime alone
Procedure: as §1

[27] = system: K. pn GC 1554 (TEM-1 + TEM-26 + SHV-1); test: as above; assay type: cell-based, K. pneumoniae; settings: Klebsiella pneumoniae, Cefepime alone, read-out: MIC
Procedure: as §1

[28] = system: K. pn GC 6488 (TEM-1 + SHV-5 + SHV-7); test: as above; assay type: cell-based, K. pneumoniae; settings: Klebsiella pneumoniae, Cefepime alone, read-out: MIC
Procedure: as §1

[29] = system: K. pn GC 6651 (TEM-1 + SHV-1 + SHV-5); test: as above; assay type: cell-based, K. pneumoniae; settings: Klebsiella pneumoniae, Cefepime alone, read-out: MIC
Procedure: as §1

[30] = system: K. pn GC 3057 (CAZ-R; P/T-R); test: as above; assay type: cell-based, K. pneumoniae; settings: Cefepime alone
Procedure: as §1

[31] = system: K. pn GC 1507 (TEM-9 + SHV-1); test: as above; assay type: cell-based, K. pneumoniae; settings: Cefepime alone
Procedure: as §1

[32] = system: K. pn GC 1963 (TEM-10 + SHV-1 + SHV-ESBL); test: as above; assay type: cell-based, K. pneumoniae; settings: Cefepime alone
Procedure: as §1

[33] = system: K. pn GC 2006 (TEM-10 + SHV-1); test: as above; assay type: cell-based, K. pneumoniae; settings: Klebsiella pneumoniae, Cefepime alone, read-out: MIC
Procedure: as §1

[34] = system: S. marcescens GC 1781 (Sme-1 + AmpC); test: MIC microbroth dilution; β-lactamase class A (Cb'ase), C; assay type: cell-based; settings: Serratia marcescens, Cefepime alone, read-out: MIC
Procedure: as §1

[35] = Klebsiella pneumoniae, control of Compound 1 test, read-out: MIC
[36] = Escherichia coli, control of Compound 1 test, read-out: MIC

Measured: MIC

CO/N=C(\C(=O)N[C@@H]1C(=O)N2C(C(=O)[O-])=C(C[N+]3(C)CCCC3)CS[C@H]12)c1csc(N)n1 [Cefepime, reference compound]
0.5 µg/mL: [1]; control of Compound 1 test | [4]; control of Compound 2 test | [7]; control of Compound 1 test
1 µg/mL: [1]; control of Compound 2 test | [7]; control of Compound 2 test
2 µg/mL: [5]; Cefepime alone, control of Compound 2 test | [5]; Pseudomonas aeruginosa, ATCC27853, Cefepime alone, control of Compound 1 test, read-out: MIC | [25]; control of Compound 2 test
>16 µg/mL: [10]; control of Compound 2 test | [11]; control of Compound 2 test | [15]; control of Compound 2 test | [16]; control of Compound 2 test | [18]; control of Compound 2 test | [22]; control of Compound 2 test | [23]; control of Compound 2 test | [24]; control of Compound 2 test | [30]; control of Compound 2 test | [32]; control of Compound 2 test
0.12 µg/mL: [2]; control of Compound 2 test | [2]; Enterobacter cloacae, control of Compound 1 test, read-out: MIC | [21]; control of Compound 1 test | [26]; control of Compound 2 test | [26]; [35]
0.03 µg/mL: [13]; control of Compound 1 test | [14]; control of Compound 1 test
16 µg/mL: [3]; Acinetobacter baumannii, control of Compound 1 test, read-out: MIC | [3]; control of Compound 2 test | [17]; control of Compound 2 test | [17]; Pseudomonas aeruginosa, PT8411PTZR, control of Compound 1 test, read-out: MIC
0.06 µg/mL: [6]; control of Compound 2 test | [12]; control of Compound 2 test | [12]; [36] | [14]; control of Compound 2 test | [21]; control of Compound 2 test | [34]; control of Compound 2 test
< 0.015 µg/mL: [13]; control of Compound 2 test
0.25 µg/mL: [4]; control of Compound 1 test | [6]; control of Compound 1 test | [34]; control of Compound 1 test
8 µg/mL: [8]; control of Compound 2 test | [8]; Pseudomonas aeruginosa, control of Compound 1 test, read-out: MIC | [9]; control of Compound 2 test | [20]; control of Compound 2 test | [20]; Pseudomonas aeruginosa, PT8503PTZR, control of Compound 1 test, read-out: MIC | [27]; control of Compound 2 test | [28]; control of Compound 1 test | [29]; control of Compound 1 test | [31]; control of Compound 2 test | [31]; [35] | [33]; control of Compound 2 test
> 16 µg/mL: [9]; control of Compound 1 test | [10]; [35] | [11]; [36] | [15]; Stenotrophomonas maltophilia, control of Compound 1 test, read-out: MIC | [16]; [35] | [18]; Pseudomonas aeruginosa, PT9236PTZR, control of Compound 1 test, read-out: MIC | [22]; Acinetobacter baumannii, GC6662IMIR, control of Compound 1 test, read-out: MIC | [23]; Acinetobacter baumannii, GC6660IMIR, control of Compound 1 test, read-out: MIC | [24]; Acinetobacter baumannii, GC6661IMIR, control of Compound 1 test, read-out: MIC | [27]; control of Compound 1 test | [30]; [35] | [32]; [35] | [33]; control of Compound 1 test
4 µg/mL: [19]; control of Compound 2 test | [19]; Pseudomonas aeruginosa, PT9587PTZR, control of Compound 1 test, read-out: MIC | [25]; control of Compound 1 test | [28]; control of Compound 2 test | [29]; control of Compound 2 test
